Data on ten compounds can be found in patent publication US20260042759A1, “INHIBITOR CONTAINING BICYCLIC DERIVATIVE, PREPARATION METHOD THEREFOR AND USE THEREOF” (SHANGHAI HANSOH BIOMEDICAL CO., LTD., priority 2019, published 2026).

The target of data set [1] is T1, RET (Homo sapiens, UniProt P07949).
T1 construct: purchased Carna 08-159
The experiment in a line: HTRF kinase assay, RET wild-type. Format: biochemical. The following applies: ATP at Km. The text has this:
• RET enzyme was purchased from Carna Company, and the article number was 08-159; • RET M918T enzyme was purchased from Carna Company, and the article number was 08-508; • KIF5B-RET was purchased from SignalChem Company, the article number was R02-19FG-05; • CCDC6-RET was purchased from SignalChem Company, the article number was R02-19BG-05; • RET V804M enzyme was purchased from Thermofisher Company, and the article number was PV6223; • RET V804L enzyme was purchased from Thermofisher Company, and the article number was PV4397; • HTRF KinEASE-TK kit was purchased from Cisbio Company, and the article number was 62TK0PEC; • ATP was purchased from Thermofisher Company, and the article number was PV3227; • 384-well plate was purchased from PerkinElmer Company, and the article number was 6007290.
In this experiment, the homogeneous time-resolved fluorescence (HTRF) method was used for the detection of compounds on RET kinase activity.
In general terms: TR-FRET usually uses a lanthanide donor and a delayed reading to cut background.

In data set [2] the target is T2, KDR kinase (Homo sapiens, UniProt P35968).
T2 construct: purchased Carna 08-191
T2 sequence (P35968 20-1356): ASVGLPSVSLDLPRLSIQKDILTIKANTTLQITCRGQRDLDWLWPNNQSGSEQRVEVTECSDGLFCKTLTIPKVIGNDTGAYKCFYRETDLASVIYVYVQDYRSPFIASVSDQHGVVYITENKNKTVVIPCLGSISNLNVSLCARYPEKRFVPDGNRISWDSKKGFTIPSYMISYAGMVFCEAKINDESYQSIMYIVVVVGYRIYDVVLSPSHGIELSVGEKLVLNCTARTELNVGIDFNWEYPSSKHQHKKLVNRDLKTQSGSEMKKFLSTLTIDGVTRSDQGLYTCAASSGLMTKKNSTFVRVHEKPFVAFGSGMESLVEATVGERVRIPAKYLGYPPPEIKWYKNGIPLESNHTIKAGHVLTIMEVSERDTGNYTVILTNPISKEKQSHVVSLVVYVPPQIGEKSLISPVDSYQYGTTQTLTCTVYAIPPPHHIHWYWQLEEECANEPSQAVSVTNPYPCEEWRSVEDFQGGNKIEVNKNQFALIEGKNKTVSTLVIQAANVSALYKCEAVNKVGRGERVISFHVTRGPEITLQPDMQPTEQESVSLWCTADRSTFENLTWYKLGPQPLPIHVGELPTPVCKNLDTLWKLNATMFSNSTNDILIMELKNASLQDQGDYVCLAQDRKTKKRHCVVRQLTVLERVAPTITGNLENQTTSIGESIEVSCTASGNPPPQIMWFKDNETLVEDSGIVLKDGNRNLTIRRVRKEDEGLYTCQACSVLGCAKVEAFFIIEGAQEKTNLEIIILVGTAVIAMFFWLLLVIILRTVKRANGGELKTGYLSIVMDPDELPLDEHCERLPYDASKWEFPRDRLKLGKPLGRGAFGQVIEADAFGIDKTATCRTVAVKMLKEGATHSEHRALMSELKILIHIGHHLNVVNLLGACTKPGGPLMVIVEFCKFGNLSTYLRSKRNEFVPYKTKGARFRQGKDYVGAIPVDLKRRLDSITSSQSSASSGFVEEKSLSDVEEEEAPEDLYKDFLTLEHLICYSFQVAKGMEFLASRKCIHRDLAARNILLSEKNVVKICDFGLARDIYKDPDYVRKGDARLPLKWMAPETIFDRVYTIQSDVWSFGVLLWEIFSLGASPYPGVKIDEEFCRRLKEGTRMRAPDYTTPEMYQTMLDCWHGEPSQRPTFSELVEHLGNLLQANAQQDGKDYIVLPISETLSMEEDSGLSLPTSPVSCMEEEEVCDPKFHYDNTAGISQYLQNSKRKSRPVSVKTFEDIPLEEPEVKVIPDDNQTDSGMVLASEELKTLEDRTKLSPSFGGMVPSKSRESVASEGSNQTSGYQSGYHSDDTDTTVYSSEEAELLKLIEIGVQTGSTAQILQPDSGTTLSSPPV
The experiment in a line: HTRF kinase assay, KDR. The settings on record: for IC50: HTRF, ATP at Km; for Ratio (KDR/RET): KDR IC50 / RET IC50. Format: biochemical. The source says: • KDR kinase was purchased from Carna Company, and the article number was 08-191; • HTRF KinEASE-TK kit was purchased from Cisbio Company, and the article number was 62TK0PEC; • ATP was purchased from Thermofisher Company, and the article number was PV3227; • 384-well plate was purchased from PerkinElmer Company, and the article number was 6007290.
In this experiment, the homogeneous time-resolved fluorescence (HTRF) method was used for the detection of compounds on KDR kinase activity.

Data set [3] can be described thus: Balb/C mouse pharmacokinetics, oral. It is filed as in vivo. The settings on record: Balb/C mice, p.o., 5 mg/kg, plasma. Here is the method:
The pharmacokinetic behavior of the following compound embodiments, administered orally at a dose of 5 mg/kg in plasma in mice, was studied using Balb/C mice as test animals.
Balb/C Mouse 6/embodiment, male, Shanghai Jiesijie Laboratory Animal Co., Ltd, Animal Production License No. (SCXK (Shanghai) 2013-0006 N0.311620400001794).
Balb/C mice, males; p.o. after overnight fasting, respectively, at a dose of 5 mg/kg, administered in a volume of 10 mL/kg.
0.5% CMC-Na(1% Tween80) was dissolved by ultrasound, and prepared into clear solution or uniform suspension.
Before and after administration, 0.1 mL of blood was collected from mice at 0, 0.5, 1, 2, 4, 6, 8 and 24 hours by orbital collection, placed in EDTA-K2 tubes, centrifuged at 6000 rpm at 4° C. for 6 min to separate plasma, and stored at −80° C.
40 μL of plasma sample was precipitated by adding 160 μL of acetonitrile, mixed and centrifuged at 3500×g for 5-20 min.
100 μL of the supernatant solution after treatment was taken to analyze the concentration of the test compound by LC/MS/MS.
The main pharmacokinetic parameters were calculated using WinNonlin 6.1 and the results of the mouse pharmacokinetic experiments were shown in Table 8 below.

Data set [4] deals with TT xenograft tumor. The data set is described as follows: Subcutaneous xenograft tumor model of human thyroid cancer cell TT. It is filed as in vivo, BALB/c nude mice. The settings on record: for Tumor inhibition rate TGI d 22 / Tumor volume (mm^3, mean ± SEM) d 22: oral BID 21 days; for Tumor volume (mm^3, mean ± SEM) d 0: oral BID. Here is the method: TT cells were cultured in vitro in a monolayer under the following conditions: F-12K medium with 20% heat-inactivated fetal bovine serum and 1% penicillin-streptomycin double antibodies at 37° C. and 5% CO2. Trypsin-EDTA was used twice a week digestion for digestion treatment passaging. When cells were in an exponential growth period, cells were collected, counted and inoculated.
TT cells were collected when they were full in a logarithmic growth period, ensuring over 90% of vitality. 0.2 mL cell suspension containing about 1×10^7 of TT cells (cells suspended in basic F-12K medium and added with 50% Matrigel) was subcutaneously inoculated into the right back tumor of each mouse […].
• 1. The day of grouping was day 0 (DO). The interval of BID administration was 6-8 h/18-16 h. The first dose was given in the afternoon of day DO and the last dose was given in the morning of day D21. • 2. Dosing volume: […] according to the body weight of nude mice.
Animal grouping: Before administration, the animals were weighed and the tumor volume was measured. The mice were randomly grouped according to tumor volume (randomized grouping design) with 5 animals per group.
Experimental index: The diameter of tumor was measured by vernier caliper twice a week. The tumor volume was calculated by the formula: V=a×b^2/2, a and b denote the long and short diameter of the tumor, respectively. The tumor suppressive efficacy of the compounds was evaluated by TGI (%). TGI (%)=(1−(TVTreatment/Dx−TVTreatment/D1)/(TVControl/Dx−TVControl/D1))×[…].
T test was used for comparison between two groups. One-way ANOVA was used for comparison among three or more groups. If there were significant differences in F values, multiple comparisons should be made after ANOVA analysis. GraphPadPrism 5.0 was used for all data analysis.
In general terms: Xenograft models place foreign cells or tissue in a host animal.

In data set [5] the test system is TT cells (MTC, RET C634W). The experiment in a line: TT cell proliferation (CellTiter-Glo). It is filed as cell-based, human. The method, then: When TT cells were cultured to the appropriate fusion level, TT cells were collected, and the cells were adjusted to the appropriate cell concentration using complete medium, and the cell suspension was spread in a 96-well plate, 90 µL per well, and placed in a 37° C., 5% CO2 incubator overnight; and compound solutions of different concentrations were prepared using DMSO and culture medium; and a solvent control was set, the compound solution was added to a 96-well plate, 10 µL per well, at 37° C. in a 5% CO2 incubator for 72 hours; CellTiter-Glo solution was added thereto and the mixture was mixed well by shaking, incubated for 10 min in the dark, and read by BioTek Synergy H1 microplate reader.
The luminescence signal values were used to calculate the inhibition rate, the concentration and the inhibition rate were fitted to a nonlinear regression curve using Graphpad Prism software.
On the technique in general: Cellular ATP, detected with luciferase, serves as a proxy for viable cell number.

The test system of data set [6] is phosphorylation of ERK, a downstream signal factor of TT cells. The data set is described as follows: ERK phosphorylation in TT cells (Western Blot). The following applies: 3.7-300 nM, 2 hours. It is filed as cell-based, human. Here is the method: In this experiment, the inhibitory effect of compounds on the phosphorylation level of ERK, a downstream signaling factor in TT cells, was measured by Western Blot method. When TT cells were cultured to the appropriate fusion degree, the cells were collected and adjusted to a suitable cell concentration using complete medium, the cell suspension was spread in a 24-well plate, 1 mL per well, and placed in a 37° C., 5% CO2 incubator overnight, and compound dilutions of different concentrations (3.7 nM, 11.1 nM, 33.3 nM, 100 nM, 300 nM) were added at 37° C. and acted for 2 hours; the cell supernatant was aspirated, washed one time with PBS, and the proteins were collected with lysate; after protein denaturation, Western blot experiments were performed: performing protein electrophoresis at 120V for approximately 75 minutes, followed by 45 minutes of transfer to PVDF membranes at 10V with a semi-dry transfer instrument, enclosing at 5% BSA for 1 hour at room temperature, and then PVDF membranes were cut into strips of appropriate size and incubated with prepared antibody dilutions overnight at 4° C. and washed 6 times with TBST, followed by imaging with goat anti-mouse secondary antibody and sheep anti-rabbit secondary antibody for 1 hour at room temperature, and the membrane was washed 6 times with TBST for imaging in the Biorad ChemiDoc™ MP Imaging System.
The inhibitory effect of compounds on ERK phosphorylation levels in TT cells at different concentrations was determined by detecting protein bands.

A word on the IC50: it is the concentration that inhibits the measured activity by half.

T1 sequence (P07949 29-1114): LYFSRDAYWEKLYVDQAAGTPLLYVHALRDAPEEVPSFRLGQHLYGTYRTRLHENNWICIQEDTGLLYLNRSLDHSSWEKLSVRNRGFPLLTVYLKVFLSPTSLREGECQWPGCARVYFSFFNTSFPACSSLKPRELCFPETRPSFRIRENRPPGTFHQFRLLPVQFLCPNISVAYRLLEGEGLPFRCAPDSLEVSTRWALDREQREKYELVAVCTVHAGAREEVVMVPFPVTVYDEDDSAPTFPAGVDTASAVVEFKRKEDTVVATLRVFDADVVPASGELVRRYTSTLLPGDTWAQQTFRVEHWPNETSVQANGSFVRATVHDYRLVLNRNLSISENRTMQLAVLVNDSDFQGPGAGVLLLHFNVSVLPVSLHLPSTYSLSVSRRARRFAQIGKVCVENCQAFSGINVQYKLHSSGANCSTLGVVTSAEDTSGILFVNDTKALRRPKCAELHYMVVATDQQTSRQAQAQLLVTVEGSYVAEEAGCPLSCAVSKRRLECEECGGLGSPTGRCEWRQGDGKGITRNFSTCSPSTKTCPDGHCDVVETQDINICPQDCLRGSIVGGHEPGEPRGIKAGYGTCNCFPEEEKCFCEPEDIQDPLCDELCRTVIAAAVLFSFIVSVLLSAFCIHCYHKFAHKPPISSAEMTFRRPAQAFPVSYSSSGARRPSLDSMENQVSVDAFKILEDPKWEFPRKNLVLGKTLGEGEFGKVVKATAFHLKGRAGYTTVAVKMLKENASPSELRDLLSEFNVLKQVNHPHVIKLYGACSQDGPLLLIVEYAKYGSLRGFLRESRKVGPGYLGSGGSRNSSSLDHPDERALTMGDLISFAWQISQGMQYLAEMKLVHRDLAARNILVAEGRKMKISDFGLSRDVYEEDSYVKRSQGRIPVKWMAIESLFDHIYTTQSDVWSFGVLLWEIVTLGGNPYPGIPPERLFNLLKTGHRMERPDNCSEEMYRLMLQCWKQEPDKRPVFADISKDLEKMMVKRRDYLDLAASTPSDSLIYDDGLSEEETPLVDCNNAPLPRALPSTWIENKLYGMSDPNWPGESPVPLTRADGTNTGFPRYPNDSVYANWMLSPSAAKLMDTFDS

As to “6-((1-Imino-1-hydroxy-1l6-thietan-3-yl)methoxy)-4-(6-(6-((6-methoxypyridin-3-yl)methyl)-3,6-diazabicyclo[3.1.1]heptan-3-yl)pyridin-3-yl)pyrazolo[1,5-a]pyridine-3-carbonitrile [Embodiment 85]”, in data set [1], the IC50 turned out to be 1.3 nM. In addition, in data set [2], half-maximal inhibition (IC50) was put at 69 nM and the “Ratio (KDR/RET)” value was 55.
Compound `COc1ccc(OC2CCN(c3ccc(-c4cc(C#CC(C)(C)O)cn5ncc(C#N)c45)cn3)CC2)cn1` [Embodiment 32, 6-(3-Hydroxy-3-methylbut-1-yn-1-yl)-4-(6-(4-((6-methoxypyridin-3-yl)oxo)piperidin-1-yl)pyridin-3-yl)pyrazolo[1,5-a]pyridine-3-carbonitrile] showed an IC50 in data set [1] of 1.22 nM. Further, in data set [2], the IC50 came out at 1.6 nM and the “Ratio (KDR/RET)” value is recorded as 1.3.
For `COc1ccc(CN2C3CC2CN(c2ccc(-c4cc(OCC(C)(C)C#N)cn5ncc(C#N)c45)cn2)C3)cn1` [Embodiment 34, 6-(2-Cyano-2-methylpropoxy)-4-(6-(6-((6-methoxypyridin-3-yl)methyl)-3,6-diazabicyclo[3.1.1]heptan-3-yl)pyridin-3-yl)pyrazolo[1,5-a]pyridine-3-carbonitrile], the “Half-life t1/2” value in data set [3] is recorded as 4.2 h.
The compound `CC(C)(O)COc1cc(-c2ccc(N3CCC(N)(C(=O)N4CCc5ccccc54)CC3)nc2)c2c(C#N)cnn2c1` [Embodiment 62, 4-(6-(4-Amino-4-(indoline-1-carbonyl)piperidin-1-yl)pyridin-3-yl)-6-(2-hydroxy-2-methylpropoxy)pyrazolo[1,5-a]pyridine-3-carbonitrile] showed an IC50 in data set [1] of 1.3 nM. For the same compound, in data set [2], half-maximal inhibition (IC50) was put at 17 nM and the “Ratio (KDR/RET)” value stood at 14.
The like results for `Cc1ccc(F)cc1C(=O)NC1(C)CC2CN(c3ccc(-c4cc(OCC(C)(C)O)cn5ncc(C#N)c45)cn3)CC2C1` (stereo not shown) [Embodiment 75, N-(2-(5-(3-cyano-6-(2-hydroxy-2-methylpropoxy)pyrazolo[1,5-a]pyridin-4-yl)pyridin-2-yl)-5-methyloctahydrocyclopenta[c]pyrrol-5-yl)-5-fluoro-2-methylbenzamide] were, in that order, 3.6 nM, 124 nM and 35.
For `COc1ncc(CN2C3CC2CN(c2ccc(-c4cc(C#CC(C)(C)O)cn5ncc(C#N)c45)cn2)C3)cc1F` [Embodiment 94, 4-(6-(6-((5-Fluoro-6-methoxypyridin-3-yl)methyl)-3,6-diazabicyclo[3.1.1]heptan-3-yl)pyridin-3-yl)-6-(3-hydroxy-3-methylbut-1-yn-1-yl)pyrazolo[1,5-a]pyridine-3-carbonitrile], in data set [4] (30 mg/kg), the “Tumor inhibition rate TGI d 22” value turned out to be 99.64%; the “Tumor volume (mm^3, mean ± SEM) d 22” value is 203.56 ± 31.74 mm^3; the “Tumor volume (mm^3, mean ± SEM) d 0” value is on record as 199.73 ± 24.07 mm^3.
As for `COc1ccc(CN2C3CC2CN(c2ccc(-c4cc(/C=C/C(C)(C)O)cn5ncc(C#N)c45)cn2)C3)cn1` [Embodiment 127], the IC50 came to 0.26 nM in data set [1]; 6.5 nM in data set [2]; 5.87 nM in data set [5] (Homo sapiens, TT, 72 h). Moreover, the “Ratio (KDR/RET)” value in data set [2] is reported as 25.
With `COc1ccc(CN2C3CC2CN(c2ccc(-c4cc(OCC56CC(C#N)(C5)C6)cn5ncc(C#N)c45)cn2)C3)cn1` [Embodiment 138, 6-((3-Cyanobicyclo[1.1.1]pentan-1-yl)methoxy)-4-(6-(6-((6-methoxypyridin-3-yl)methyl)-3,6-diazabicyclo[3.1.1]heptan-3-yl)pyridin-3-yl)pyrazolo[1,5-a]pyridine-3-carbonitrile], the IC50 in data set [5] (72 hours) worked out at 25.1 nM.
On to `C#C[C@@](C)(O)COc1cc(-c2ccc(N3CC4CC(C3)N4Cc3ccc(OC)nc3)nc2)c2c(C#N)cnn2c1` [Embodiment 152, 6-(((R)-2-hydroxy-2-methylbut-3-yn-1-yl)oxy)-4-(6-(6-((6-methoxypyridin-3-yl)methyl)-3,6-diazabicyclo[3.1.1]heptan-3-yl)pyridin-3-yl)pyrazolo[1,5-a]pyridine-3-carbonitrile], for which, in data set [6], the “inhibition of the phosphorylation level of ERK in TT cells, overall” value was “significantly inhibit”.
`COc1ccc(CN2C3CC2CN(c2ccc(-c4cc(N5CC(C)(C#N)C5)cn5ncc(C#N)c45)cn2)C3)cn1` [Embodiment 168, 6-(3-Cyano-3-methylazetidin-1-yl)-4-(6-(6-((6-methoxypyridin-3-yl)methyl)-3,6-diazabicyclo[3.1.1]heptan-3-yl)pyridin-3-yl)pyrazolo[1,5-a]pyridine-3-carbonitrile]: in data set [4] (10 mg/kg), the “Tumor inhibition rate TGI d 22” value turned out to be 129.77%; the “Tumor volume (mm^3, mean ± SEM) d 22” value stood at 144.14 ± 8.95 mm^3; the “Tumor volume (mm^3, mean ± SEM) d 0” value was 205.23 ± 16.57 mm^3.
